In patent publication US7803930B2, “Antisense modulation of apolipoprotein B-expression” (Isis Pharmaceuticals, Inc., priority 2002, dated 2010):
In the oligonucleotide strings, read from the 5' end, every base follows the letter of its sugar. An asterisk marks phosphorothioate; unmarked linkages are phosphodiester. Other units and linkages are bracketed, terminal groups are in braces. A string of capitals states the bases alone. e = 2'-O-(2-methoxyethyl) (MOE); [5mC] = 5-methylcytosine; d = 2'-deoxy (DNA)

tested on: human apolipoprotein B mRNA; experiment: Inhibition of human apolipoprotein B mRNA levels in HepG2 cells, quantitative real-time PCR; type: cell-based; conditions: HepG2 cells; human apolipoprotein B mRNA; oligonucleotides targeting genomic sequence SEQ ID NO 334; averages from two experiments
How it was run: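 HepG2 cells at 80% confluency were transfected with antisense oligonucleotide using 3.75 μg/mL Lipofectin in Opti-MEM for 4-7 h and harvested 16-24 h after treatment. Apolipoprotein B mRNA was measured by real-time RT-PCR and normalized to GAPDH or RiboGreen total RNA. Percent inhibition came from untreated-control standard curves.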

Substance	% INHIB
301085 (antisense eT*eG*eG*eG*eA*d[5mC]*dT*dT*dA*d[5mC]*d[5mC]*dA*dT*dG*d[5mC]*e[5mC]*eT*eT*eT*eG) [compound 301085]	11%
301086 (antisense eG*eG*eT*eT*eT*dT*dG*d[5mC]*dT*dG*d[5mC]*d[5mC]*d[5mC]*dT*dA*e[5mC]*eA*eT*e[5mC]*e[5mC]) [compound 301086]	30%
301087 (antisense eA*e[5mC]*eA*eA*eG*dG*dA*dG*dT*d[5mC]*d[5mC]*dT*dT*dG*dT*eG*e[5mC]*eA*eG*eA) [compound 301087]	40%
301088 (antisense eA*eT*eG*eT*eT*d[5mC]*dA*d[5mC]*dT*dG*dA*dG*dA*d[5mC]*dA*eG*eG*e[5mC]*eT*eG) [compound 301088]	41%
301089 (antisense eG*eA*eA*eG*eG*dT*d[5mC]*d[5mC]*dA*dT*dG*dG*dT*dT*d[5mC]*eA*eT*e[5mC]*eT*eG) [compound 301089]	0%
301090 (antisense eA*eT*eT*eA*eG*dA*d[5mC]*dT*dG*dG*dA*dA*dG*d[5mC]*dA*eT*e[5mC]*e[5mC]*eT*eG) [compound 301090]	39%
301091 (antisense eG*eA*eG*eA*eT*dT*dG*dG*dA*dG*dA*d[5mC]*dG*dA*dG*e[5mC]*eA*eT*eT*eT) [compound 301091]	35%
301092 (antisense e[5mC]*eA*eT*eG*eA*d[5mC]*d[5mC]*dT*dA*d[5mC]*dT*dT*dG*dT*dA*eG*eG*eA*eG*eA) [compound 301092]	22%
301093 (antisense eT*eG*eG*eA*eT*dT*dT*dG*dG*dA*dT*dA*d[5mC]*dA*d[5mC]*eA*eA*eG*eT*eT) [compound 301093]	42%
301094 (antisense eA*e[5mC]*eT*e[5mC]*eA*dA*dT*dA*dT*dA*dT*dA*dT*dT*d[5mC]*eA*eT*eT*eG*eA) [compound 301094]	22%
301095 (antisense e[5mC]*eA*eA*eG*eG*dA*dA*dG*d[5mC]*dA*d[5mC]*dA*d[5mC]*d[5mC]*dA*eT*eG*eT*e[5mC]*eA) [compound 301095]	38%
301096 (antisense eA*eT*eA*e[5mC]*eT*dT*dA*dT*dT*d[5mC]*d[5mC]*dT*dG*dG*dT*eA*eA*e[5mC]*e[5mC]*eA) [compound 301096]	24%
301097 (antisense eG*eG*eT*eA*eG*d[5mC]*d[5mC]*dA*dG*dA*dA*d[5mC]*dA*d[5mC]*d[5mC]*eA*eG*eT*eG*eT) [compound 301097]	50%
301098 (antisense eA*e[5mC]*eT*eA*eG*dA*dG*dG*dT*dA*dG*d[5mC]*d[5mC]*dA*dG*eA*eA*e[5mC]*eA*e[5mC]) [compound 301098]	34%
301099 (antisense eA*e[5mC]*e[5mC]*eA*e[5mC]*d[5mC]*dT*dG*dA*d[5mC]*dA*dT*d[5mC]*dA*d[5mC]*eA*eG*eG*eT*eT) [compound 301099]	24%
301100 (antisense eT*eA*e[5mC]*eT*eG*dT*dG*dA*d[5mC]*d[5mC]*dT*dA*dT*dG*d[5mC]*e[5mC]*eA*eG*eG*eA) [compound 301100]	55%
301101 (antisense eG*eG*eA*eG*eG*dT*dG*d[5mC]*dT*dA*d[5mC]*dT*dG*dT*dT*eG*eA*e[5mC]*eA*eT) [compound 301101]	42%
301102 (antisense eT*e[5mC]*e[5mC]*eA*eG*dA*d[5mC]*dT*dT*dG*dT*d[5mC]*dT*dG*dA*eG*eT*e[5mC]*eT*eA) [compound 301102]	47%
301103 (antisense eT*e[5mC]*eT*eA*eA*dG*dA*dG*dG*dT*dA*dG*dA*dG*d[5mC]*eT*eA*eA*eA*eG) [compound 301103]	7%
301104 (antisense e[5mC]*e[5mC]*eA*eG*eA*dG*dA*dT*dG*dA*dG*d[5mC]*dA*dA*d[5mC]*eT*eT*eA*eG*eG) [compound 301104]	38%
301105 (antisense eG*eG*e[5mC]*e[5mC]*eA*dT*dG*dT*dA*dA*dA*dT*dT*dG*d[5mC]*eT*e[5mC]*eA*eT*e[5mC]) [compound 301105]	7%
301106 (antisense eA*eA*eA*eG*eA*dA*dA*d[5mC]*dT*dA*dT*d[5mC]*d[5mC]*dT*dG*eT*eA*eT*eT*e[5mC]) [compound 301106]	12%
301107 (antisense eT*eT*e[5mC]*eT*eT*dA*dG*dT*dA*d[5mC]*d[5mC]*dT*dG*dG*dA*eA*eG*eA*eT*eG) [compound 301107]	23%
301108 (antisense e[5mC]*eA*eT*eT*eA*dG*dA*dT*dA*d[5mC]*d[5mC]*dT*dG*dG*dA*e[5mC]*eA*e[5mC]*e[5mC]*eT) [compound 301108]	29%
301109 (antisense eG*eT*eT*eT*e[5mC]*dA*dT*dG*dG*dA*dA*d[5mC]*dT*d[5mC]*dA*eG*e[5mC]*eG*e[5mC]*eA) [compound 301109]	44%

Substance	% INHIB
301110 (antisense e[5mC]*eT*eG*eG*eA*dG*dA*dG*d[5mC]*dA*d[5mC]*d[5mC]*dT*dG*d[5mC]*eA*eA*eT*eA*eG) [compound 301110]	35%
301111 (antisense eT*eG*eA*eA*eG*dG*dG*dT*dA*dG*dA*dG*dA*dA*dA*eT*e[5mC]*eA*eT*eA) [compound 301111]	9%
301112 (antisense eG*eG*eA*eA*eA*d[5mC]*dT*d[5mC]*dA*d[5mC]*dT*dT*dG*dT*dT*eG*eA*e[5mC]*e[5mC]*eG) [compound 301112]	25%
301113 (antisense eA*eG*eG*eT*eG*d[5mC]*dA*dA*dG*dA*dT*dG*dT*dT*d[5mC]*e[5mC]*eT*e[5mC]*eT*eG) [compound 301113]	46%
301114 (antisense eT*eG*e[5mC]*eA*e[5mC]*dA*dG*dA*dG*dG*dT*dG*d[5mC]*dA*dA*eG*eA*eT*eG*eT) [compound 301114]	16%
301115 (antisense e[5mC]*eA*e[5mC]*eA*eA*dG*dA*dG*dT*dA*dA*dG*dG*dA*dG*e[5mC]*eA*eG*eA*eG) [compound 301115]	39%
301116 (antisense eG*eA*eT*eG*eG*dA*dT*dG*dG*dT*dG*dA*dG*dA*dA*eA*eT*eT*eA*e[5mC]) [compound 301116]	33%
301117 (antisense eT*eA*eG*eA*e[5mC]*dA*dA*dT*dT*dG*dA*dG*dA*d[5mC]*dT*e[5mC]*eA*eG*eA*eA) [compound 301117]	39%
301118 (antisense eA*eT*eG*eT*eG*d[5mC]*dA*d[5mC]*dA*d[5mC]*dA*dA*dG*dG*dA*e[5mC]*eA*eT*eA*eG) [compound 301118]	33%
301119 (antisense eA*e[5mC]*eA*eT*eA*d[5mC]*dA*dA*dA*dT*dG*dG*d[5mC]*dA*dA*eT*eA*eG*eG*e[5mC]) [compound 301119]	33%
301120 (antisense eT*eA*eG*eG*e[5mC]*dA*dA*dA*dG*dG*dA*d[5mC]*dA*dT*dG*eA*eA*eT*eA*eG) [compound 301120]	30%
301121 (antisense eT*eT*eA*eT*eG*dA*dT*dA*dG*d[5mC]*dT*dA*d[5mC]*dA*dG*eA*eA*eT*eA*eA) [compound 301121]	29%
301122 (e[5mC]*eT*eG*eA*eG*dA*dT*dT*dA*d[5mC]*d[5mC]*d[5mC]*dG*d[5mC]*dA*eG*eA*eA*eT*e[5mC]; antisense) [compound 301122]	32%
301123 (eG*eA*eT*eG*eT*dA*dT*dG*dT*d[5mC]*dA*dT*dA*dT*dA*eA*eA*eA*eG*eA; antisense) [compound 301123]	26%
301124 (eT*eT*eT*e[5mC]*e[5mC]*dA*dA*dT*dG*dA*d[5mC]*d[5mC]*dT*dG*d[5mC]*eA*eT*eT*eG*eA; antisense) [compound 301124]	48%
301125 (eA*eG*eG*eG*eA*dT*dG*dG*dT*d[5mC]*dA*dA*dT*d[5mC]*dT*eG*eG*eT*eA*eG; antisense) [compound 301125]	57%
301126 (eG*eG*e[5mC]*eT*eA*dA*dT*dA*dA*dA*dT*dA*dG*dG*dG*eT*eA*eG*eT*eT; antisense) [compound 301126]	22%
301127 (eT*e[5mC]*e[5mC]*eT*eA*dG*dA*dG*d[5mC]*dA*d[5mC]*dT*dA*dT*d[5mC]*eA*eA*eG*eT*eA; antisense) [compound 301127]	41%
301128 (e[5mC]*e[5mC]*eT*e[5mC]*e[5mC]*dT*dG*dG*dT*d[5mC]*d[5mC]*dT*dG*d[5mC]*dA*eG*eT*e[5mC]*eA*eA; antisense) [compound 301128]	56%
301129 (e[5mC]*eA*eT*eT*eT*dG*d[5mC]*dA*d[5mC]*dA*dA*dG*dT*dG*dT*eT*eT*eG*eT*eT; antisense) [compound 301129]	35%
301130 (e[5mC]*eT*eG*eA*e[5mC]*dA*d[5mC]*dA*d[5mC]*d[5mC]*dA*dT*dG*dT*dT*eA*eT*eT*eA*eT; antisense) [compound 301130]	10%
301131 (e[5mC]*eT*eT*eT*eT*dT*d[5mC]*dA*dG*dA*d[5mC]*dT*dA*dG*dA*eT*eA*eA*eG*eA; antisense) [compound 301131]	0%
301132 (eT*e[5mC]*eA*e[5mC]*eA*d[5mC]*dT*dT*dA*d[5mC]*d[5mC]*dT*d[5mC]*dG*dA*eT*eG*eA*eG*eG; antisense) [compound 301132]	29%
301133 (eA*eA*eG*eA*eA*dA*dA*dT*dG*dG*d[5mC]*dA*dT*d[5mC]*dA*eG*eG*eT*eT*eT; antisense) [compound 301133]	13%
301134 (e[5mC]*e[5mC]*eA*eA*eG*d[5mC]*d[5mC]*dA*dA*dT*d[5mC]*dT*dG*dA*dG*eA*eA*eA*eG*eA; antisense) [compound 301134]	25%
